Source: the NIST ThermoML archive (doi:10.1021/je900127m)

Assay: xn = mol fraction of the nth substance listed
Settings: 313.15 K, Fluid (supercritical or subcritical phases), Bellows volumetry

O=C=O [carbon dioxide] + CCO
Settings	mass density [kg/m3]
1000 kPa, x1 = 1	17.9
2000 kPa, x1 = 0.1	787.2
2000 kPa, x1 = 1	37.1
3000 kPa, x1 = 0.1	788.2
3000 kPa, x1 = 1	58.7
4000 kPa, x1 = 0.1	789.2
4000 kPa, x1 = 0.2	799.4
4000 kPa, x1 = 1	83.5
5000 kPa, x1 = 0.1	790.2
5000 kPa, x1 = 0.2	800.6
5000 kPa, x1 = 1	112.7
6000 kPa, x1 = 0.1	791.1
6000 kPa, x1 = 0.2	801.9
6000 kPa, x1 = 0.3	811.2
6000 kPa, x1 = 0.4	816.6
6000 kPa, x1 = 1	148.8
7000 kPa, x1 = 0.1	792.1
7000 kPa, x1 = 0.2	803.1
7000 kPa, x1 = 0.3	812.7
7000 kPa, x1 = 0.4	818.7
7000 kPa, x1 = 0.5	821.1
7000 kPa, x1 = 1	197.3
8000 kPa, x1 = 0.1	793.1
8000 kPa, x1 = 0.2	804.2
8000 kPa, x1 = 0.3	814.3
8000 kPa, x1 = 0.4	820.8
8000 kPa, x1 = 0.5	824
8000 kPa, x1 = 0.6	818.8
8000 kPa, x1 = 0.7	804.5
8000 kPa, x1 = 0.8	771.1
8000 kPa, x1 = 1	276.7
9000 kPa, x1 = 0.1	794
9000 kPa, x1 = 0.2	805.3
9000 kPa, x1 = 0.3	815.7
9000 kPa, x1 = 0.4	822.8
9000 kPa, x1 = 0.5	826.8
9000 kPa, x1 = 0.6	823
9000 kPa, x1 = 0.7	811.5
9000 kPa, x1 = 0.8	784.8
9000 kPa, x1 = 0.899	729.1
9000 kPa, x1 = 0.95	667
9000 kPa, x1 = 1	483.4
10000 kPa, x1 = 0.1	795
10000 kPa, x1 = 0.2	806.6
10000 kPa, x1 = 0.3	817.2
10000 kPa, x1 = 0.4	824.7
10000 kPa, x1 = 0.5	829.4
10000 kPa, x1 = 0.6	827
10000 kPa, x1 = 0.7	817.8
10000 kPa, x1 = 0.8	795.8
10000 kPa, x1 = 0.899	752.3
10000 kPa, x1 = 0.95	709.8
10000 kPa, x1 = 1	627.4

CCO [ethanol] + O=C=O
x2 = 0
Settings	mass density [kg/m3]
1000 kPa	773.1
2000 kPa	773.9
3000 kPa	774.8
4000 kPa	775.5
5000 kPa	776.4
6000 kPa	777.2
7000 kPa	778
8000 kPa	778.8
9000 kPa	779.6
10000 kPa	780.4
